Experimental data: PubChem BioAssay (NCI)
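Following 48 hours of exposure in 96-well plates, responses at five concentrations were used to interpolate endpoints linearly. GI50 is the concentration that inhibits growth by half. The concentration for full growth arrest is given as TGI.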

What was measured:
Experiment in all cases: NCI anticancer screen, dose series, 48 h
SF-295 CNS = tested on: SF-295 CNS
M14 melanoma = tested on: M14 melanoma
MDA-MB-231 breast = tested on: MDA-MB-231 breast
HT29 colon = tested on: HT29 colon
UACC-257 melanoma = tested on: UACC-257 melanoma
HCT-116 colon = tested on: HCT-116 colon
NCI-H226 lung = tested on: NCI-H226 lung
UACC-62 melanoma = tested on: UACC-62 melanoma
DU-145 prostate = tested on: DU-145 prostate
OVCAR-8 ovarian = tested on: OVCAR-8 ovarian
RXF 393 renal = tested on: RXF 393 renal
MDA-MB-435 = tested on: MDA-MB-435
ACHN renal = tested on: ACHN renal
K-562 leukemia = tested on: K-562 leukemia
HL-60(TB) leukemia = tested on: HL-60(TB) leukemia
SK-OV-3 ovarian = tested on: SK-OV-3 ovarian
COLO 205 colon = tested on: COLO 205 colon
SF-539 CNS = tested on: SF-539 CNS
KM12 colon = tested on: KM12 colon
SK-MEL-2 melanoma = tested on: SK-MEL-2 melanoma
CAKI-1 renal = tested on: CAKI-1 renal
NCI/ADR-RES ovarian = tested on: NCI/ADR-RES ovarian
HOP-62 NSCLC = tested on: HOP-62 NSCLC
A549 NSCLC = tested on: A549 NSCLC
MOLT-4 leukemia = tested on: MOLT-4 leukemia
786-0 renal = tested on: 786-0 renal
T-47D breast = tested on: T-47D breast

C[C@]12CC[C@@H]3c4ccc(O)cc4CC[C@H]3[C@@H]1CC[C@@H]2NS(=O)(=O)c1ccc(Cl)cc1
GI50 (SF-295 CNS): 1.39 µM | TGI (SF-295 CNS): 2.72 µM | GI50 (M14 melanoma): 9.13 µM | TGI (M14 melanoma): 27.1 µM | GI50 (MDA-MB-231 breast): 3.6 µM | TGI (MDA-MB-231 breast): 14.2 µM | GI50 (HT29 colon): 2.92 µM | TGI (HT29 colon): 8.19 µM | GI50 (UACC-257 melanoma): 8.5 µM | TGI (UACC-257 melanoma): 23.5 µM | GI50 (HCT-116 colon): 4.03 µM | TGI (HCT-116 colon): 21.7 µM | GI50 (NCI-H226 lung): 6.43 µM | TGI (NCI-H226 lung): 21.4 µM | GI50 (UACC-62 melanoma): 4.46 µM | TGI (UACC-62 melanoma): 17.5 µM | GI50 (DU-145 prostate): 7.53 µM | TGI (DU-145 prostate): 21.6 µM | GI50 (OVCAR-8 ovarian): 4.86 µM | TGI (OVCAR-8 ovarian): 20.6 µM | GI50 (RXF 393 renal): 3.02 µM | TGI (RXF 393 renal): 8.89 µM | GI50 (MDA-MB-435): 1.84 µM | TGI (MDA-MB-435): 3.93 µM | GI50 (ACHN renal): 3.5 µM | TGI (ACHN renal): 12.9 µM | GI50 (K-562 leukemia): 3.93 µM | TGI (K-562 leukemia): 31.7 µM | GI50 (HL-60(TB) leukemia): 5.14 µM | TGI (HL-60(TB) leukemia): 26.6 µM | GI50 (SK-OV-3 ovarian): 8.79 µM | TGI (SK-OV-3 ovarian): 22.5 µM | GI50 (COLO 205 colon): 2.17 µM | TGI (COLO 205 colon): 4.09 µM | GI50 (SF-539 CNS): 5.36 µM | TGI (SF-539 CNS): 19.1 µM | GI50 (KM12 colon): 2.86 µM | TGI (KM12 colon): 9.51 µM | GI50 (SK-MEL-2 melanoma): 5.31 µM | TGI (SK-MEL-2 melanoma): 17.7 µM | GI50 (CAKI-1 renal): 3.3 µM | TGI (CAKI-1 renal): 10.4 µM | GI50 (NCI/ADR-RES ovarian): 4 µM | TGI (NCI/ADR-RES ovarian): 16.8 µM | GI50 (HOP-62 NSCLC): 10.2 µM | TGI (HOP-62 NSCLC): 24.4 µM | GI50 (A549 NSCLC): 3.98 µM | TGI (A549 NSCLC): 15.3 µM | GI50 (MOLT-4 leukemia): 3.46 µM | TGI (MOLT-4 leukemia): 24.4 µM | GI50 (786-0 renal): 5.19 µM | TGI (786-0 renal): 19.7 µM | GI50 (T-47D breast): 3.66 µM | TGI (T-47D breast): 15.3 µM
